Laboratory results from EP4613273A1, “TREATMENT OF BONE LOSS” (priority 2024, dated 2025).
Structures can show the parent of a compound that is named as a salt.

Tests used:
[1] = Tolerance, hematology, biochemistry and calcium during 90-day treatment in dogs with periodontal disease; assay type: in vivo; set-up: Platelet: unit not given here; conditions: for Alanine transferase / Albumin / Albumin/Globulin ratio / Alkalin phosphatase / BUN/Creatinine ratio / Basophil / Creatinine / Eosinophil / Globulin / Glucose / HCT / HGB / Lymphocyte / MCH / MCHC / MCV / Monocyte / Neutrophil / Platelet / RBC / Reticulocyte / Total calcium / Total protein / Urea: mean
Description: (§1) The present study was performed on 10 Beagle dogs suffering from alveolar bone loss induced by spontaneously developed periodontal disease. All dogs were treated with MIV-701 besylate salt for minimum 30 day and maximum 90 days, depending on the tolerance at intermediate visits. The product is administrated to the dog by its owner at home, once a day with a meal.
(§2) There were two treatment groups: • Group A (5 dogs) with a dose of 25 mg/kg. • Group B (5 dogs) with a dose of 50 mg/kg.
Treatment was administrated for 90 days. Every 30 days, based on the results of clinical exam, blood parameters and potential occurrence of adverse events suspected to be drug-related, the treatment prolongation for another 30 days, or discontinuation of treatment was decided by the Investigator.
Whole blood sample for hematology analysis was collected at visit V1 (between Day -7 and Day 0), visit V3 (Day 30+3 days), Visit V4 (Day 60t 3 days) and Visit V5 (Day 90t 3 days).
The result from visit V1 (between Day -7 and Day 0) was used as a baseline value for the safety evaluation criteria.
Each time 1 ml of the peripheral whole blood was collected on a tube with anti-coagulant (EDTA) and gently inverted several times. A complete blood count: WBC with details of lymphocytes, monocytes and polynuclear cells (neutrophils, eosinophils and basophils); Red blood cells (RBC); Hematocrit (HCT); Hemoglobin (HGB); Reticulocytes (RETIC); Mean corpuscular volume (MCV); Mean Corpuscular Hemoglobin (MCH); Mean Corpuscular Hemoglobin Concentration (MCHC); platelets count (PLT) was performed.
Whole blood sample for biochemistry analysis was collected at visit V1 (between Day -7 and Day 0), visit V3 (Day 30+3 days), Visit V4 (Day 60t 3 days) and Visit V5 (Day 90t 3 days).
Each time 1.3 ml of the peripheral whole blood was collected on lithium heparin tube and gently inverted several times. Next, sample was centrifuged at 2500 G for 5 minutes at room temperature and heparin plasma will be collected. The following biochemical parameters: Albumin, Alanine transaminase (ALT), Alkaline phosphatase (ALP), creatinine, globulins, glucose, Total proteins, Urea, Albumin/globulin ratio and urea/creatinine ratio were analyzed.

[2] = system: dogs with alveolar bone loss induced by spontaneously developed periodontal disease; experiment: Periodontal parameter assessment (CAL, PPD, bleeding) in dogs with periodontal disease; assay type: in vivo; conditions: CTX-1 responders; Day-90 vs Day-0
Description: as §1, §2
The examination was performed at visit V2 (Day 0) and visit V5 (90t 3 days).
At visit V2 (Day 0) and V5 (90 ± 3 days). the Investigator evaluated the following parameters for each tooth: • Periodontal probing depth (PPD) - measured as the distance from the gingival margin to the bottom of the pocket using a graduated periodontal probe of Investigator's choice. The sulcus/pocket was measured circumferentially around the whole tooth and valued of 3 to 6 places, depending on the tooth localization (Figure 11). Measurements was done in millimeters (mm) and rounded to the nearest lower value. The mean PPD value of these measurements per tooth was calculated. • Clinical attachment loss (CAL) - measured as the distance from the cemento-enamel-junction to the bottom of the pocket using a periodontal probe of the Investigator choice. CAL was measured in 3 to 6 sites per tooth depending on the tooth localization (Figure 11). Measurements was done in millimeters (mm) and rounded to the nearest lower value (Kortegaard et al. 2014). The mean CAL value of these measurements per tooth will be calculated. • Bleeding Probing Index - assessed at each site of PPD and CAL measurement. Depending on the absence or presence of bleeding within 10 second following probing of the tooth, BPI scored either as 0 or 1 respectively. The mean BIP value was calculated per tooth.
At visit V5 (90t 3 days), the Investigator assessed PPD, CAL and BoP in only 3 selected teeth for the study and recorded it in PERIODONTAL PARAMETERS FORM.

[3] = dogs with periodontal disease, 90-day treatment
[4] = Day 30, 25 or 50 mg/kg/day oral
[5] = Day 60, 25 or 50 mg/kg/day oral
[6] = Day 90, all dogs 50 mg/kg/day for last 30 days

**Q.** With `CC(C)C[C@H](NC(=O)c1ccc(-c2csc(N3CCN(C)CC3)n2)cc1)C(=O)N1C[C@H](F)[C@H]2OCC(O)(O)[C@H]21` [MIV-701 besylate salt, N-[(S)-1-((3aS,6S,6aS)-6-Fluoro-S-oxo-hexahydro-furo[3,2-b]pyrrole-4-carbony)-3-methyl-butyl]-4-[2-(4-methyl-piperazin-1-yl)-thiazol-4-yl]-benzamide benzenesulphonate] as the compound, how does the “death and Serious Adverse Event (SAE)” value [1, 3] read?
**A.** No death and no Serious Adverse Event (SAE)

**Q.** What about the “evolution of blood cell count and clinical biochemistry parameters” value [1, 3] of the same compound?
**A.** No safety concern

**Q.** And the tolerance ([1]; dogs with periodontal disease, once-a-day 25 and 50 mg/kg/day, 90-day treatment period)?
**A.** well tolerated

**Q.** What about the Alanine transferase [1, 4] of the same compound?
**A.** 37,9 U/L

**Q.** What about the Albumin [1, 4] of the same compound?
**A.** 26,3 g/L

**Q.** And the Albumin/Globulin ratio [1, 4]?
**A.** 0,61

**Q.** What about the Alkalin phosphatase [1, 4] of the same compound?
**A.** 31,5 U/L

**Q.** And the BUN/Creatinine ratio [1, 4]?
**A.** 17,8

**Q.** And the Basophil [1, 4]?
**A.** 0,03 10^9/L

**Q.** What about the Creatinine [1, 4] of the same compound?
**A.** 57,8 µmol/L

**Q.** And the Eosinophil [1, 4]?
**A.** 1,3 10^9/L

**Q.** What about the Globulin [1, 4] of the same compound?
**A.** 43,6 g/L

**Q.** What about the Glucose [1, 4] of the same compound?
**A.** 5,3 mmol/L

**Q.** And the HCT [1, 4]?
**A.** 41,8%

**Q.** And the HGB [1, 4]?
**A.** 14,2 g/DL

**Q.** What about the Lymphocyte [1, 4] of the same compound?
**A.** 1,7 10^9/L

**Q.** What about the MCH [1, 4] of the same compound?
**A.** 21,5 pg

**Q.** What about the MCHC [1, 4] of the same compound?
**A.** 33,9 g/DL

**Q.** What about the MCV [1, 4] of the same compound?
**A.** 63,5 fL

**Q.** What about the Monocyte [1, 4] of the same compound?
**A.** 0,8 10^9/L

**Q.** And the Neutrophil [1, 4]?
**A.** 7,7 10^9/L

**Q.** And the Platelet [1, 4]?
**A.** 381,3

**Q.** What about the RBC [1, 4] of the same compound?
**A.** 6,6 10^12/L

**Q.** And the Reticulocyte [1, 4]?
**A.** 32,0 K/µL

**Q.** And the Total calcium [1, 4]?
**A.** 2,4 mmol/L

**Q.** What about the Total protein [1, 4] of the same compound?
**A.** 7,0 g/dL

**Q.** And the Urea [1, 4]?
**A.** 4,0 mmol/L

**Q.** And the Alanine transferase [1, 5]?
**A.** 41,7 U/L

**Q.** And the Albumin [1, 5]?
**A.** 26,9 g/L

**Q.** And the Albumin/Globulin ratio [1, 5]?
**A.** 0,65

**Q.** What about the Alkalin phosphatase [1, 5] of the same compound?
**A.** 31,6 U/L

**Q.** And the BUN/Creatinine ratio [1, 5]?
**A.** 21,7

**Q.** What about the Basophil [1, 5] of the same compound?
**A.** 0,03 10^9/L

**Q.** What about the Creatinine [1, 5] of the same compound?
**A.** 62,7 µmol/L

**Q.** What about the Eosinophil [1, 5] of the same compound?
**A.** 1,2 10^9/L

**Q.** And the Globulin [1, 5]?
**A.** 40,6 g/L

**Q.** What about the Glucose [1, 5] of the same compound?
**A.** 5,7 mmol/L

**Q.** And the HCT [1, 5]?
**A.** 40,0%

**Q.** And the HGB [1, 5]?
**A.** 13,6 g/DL

**Q.** And the Lymphocyte [1, 5]?
**A.** 1,7 10^9/L

**Q.** And the MCH [1, 5]?
**A.** 21,8 pg

**Q.** What about the MCHC [1, 5] of the same compound?
**A.** 33,8 g/DL

**Q.** And the MCV [1, 5]?
**A.** 64,6 fL

**Q.** And the Monocyte [1, 5]?
**A.** 0,7 10^9/L

**Q.** And the Neutrophil [1, 5]?
**A.** 7,0 10^9/L

**Q.** What about the Platelet [1, 5] of the same compound?
**A.** 384,8

**Q.** And the RBC [1, 5]?
**A.** 6,2 10^12/L

**Q.** And the Reticulocyte [1, 5]?
**A.** 22,9 K/µL

**Q.** What about the Total calcium [1, 5] of the same compound?
**A.** 2,3 mmol/L

**Q.** What about the Total protein [1, 5] of the same compound?
**A.** 6,8 g/dL

**Q.** What about the Urea [1, 5] of the same compound?
**A.** 5,4 mmol/L

**Q.** And the Alanine transferase [1, 6]?
**A.** 36,8 U/L

**Q.** What about the Albumin [1, 6] of the same compound?
**A.** 28,3 g/L

**Q.** And the Albumin/Globulin ratio [1, 6]?
**A.** 0,65

**Q.** And the Alkalin phosphatase [1, 6]?
**A.** 45,4 U/L

**Q.** And the BUN/Creatinine ratio [1, 6]?
**A.** 22,8

**Q.** What about the Basophil [1, 6] of the same compound?
**A.** 0,02 10^9/L

**Q.** What about the Creatinine [1, 6] of the same compound?
**A.** 60,2 µmol/L

**Q.** What about the Eosinophil [1, 6] of the same compound?
**A.** 1,2 10^9/L

**Q.** What about the Globulin [1, 6] of the same compound?
**A.** 43,0 g/L

**Q.** What about the Glucose [1, 6] of the same compound?
**A.** 5,7 mmol/L

**Q.** And the HCT [1, 6]?
**A.** 40,1%

**Q.** What about the HGB [1, 6] of the same compound?
**A.** 13,6 g/DL

**Q.** What about the Lymphocyte [1, 6] of the same compound?
**A.** 1,7 10^9/L

**Q.** What about the MCH [1, 6] of the same compound?
**A.** 22,2 pg

**Q.** And the MCHC [1, 6]?
**A.** 33,8 g/DL

**Q.** What about the MCV [1, 6] of the same compound?
**A.** 65,7 fL

**Q.** And the Monocyte [1, 6]?
**A.** 0,9 10^9/L

**Q.** What about the Neutrophil [1, 6] of the same compound?
**A.** 8,3 10^9/L

**Q.** And the Platelet [1, 6]?
**A.** 423,0

**Q.** What about the RBC [1, 6] of the same compound?
**A.** 6,2 10^12/L

**Q.** What about the Reticulocyte [1, 6] of the same compound?
**A.** 29.5 K/µL

**Q.** And the Total calcium [1, 6]?
**A.** 2,4 mmol/L

**Q.** What about the Total protein [1, 6] of the same compound?
**A.** 7,1 g/dL

**Q.** And the Urea [1, 6]?
**A.** 5,4 mmol/L

**Q.** And the “dogs with one episode of diarrhea of mild intensity for 2 days” value ([1]; of 10 dogs, spontaneously resolved under treatment)?
**A.** 2 dogs

**Q.** What about the “Clinical Attachment Loss (CAL)” value [2] of the same compound?
**A.** significantly improved

**Q.** And the “Gingival Bleeding Index (GBI)” value [2]?
**A.** not modified

**Q.** And the “Periodontal Probing Depth (PPD)” value [2]?
**A.** significantly improved
